Measurements: patent US9850283B2, “Macrocyclic inhibitors of the PD-1/PD-L1 and CD80(B7-1)/PD-L1 protein/protein interactions” (BRISTOL-MYERS SQUIBB COMPANY, priority 2013, dated 2017)
pIC50: −log10 of the molar value. Where two headings read alike, the source gives them in different places. Starred links: 1 amine or outer side, 2 acyl side, 3 side chain; linkers in the order of their positions; H or OH if unused. Positions of bridges follow the written chain, without caps; N, C: chain ends. Non-standard residues stand in square brackets, D forms with d. Residues, ends and D or L forms follow the SMILES beside them. ξ: configuration not given here. Phe(3,4,5-F3) = N[C@@H](Cc1cc(F)c(F)c(F)c1)C(=O)O; Phe(3-CF3) = N[C@@H](Cc1cccc(C(F)(F)F)c1)C(=O)O; X16 = O=C([C@@H]1CC[C@H](O)CN1[*:1])[*:2]; Ala(2-furyl) = N[C@@H](Cc1ccco1)C(=O)O; d(cisHyp) = O=C(O)[C@H]1C[C@@H](O)CN1; Hyp = O=C(O)[C@@H]1C[C@@H](O)CN1; NMeF = CN[C@@H](Cc1ccccc1)C(=O)O; NMeE = CN[C@@H](CCC(=O)O)C(=O)O; NMeNle = CCCC[C@H](NC)C(=O)O; hSer = N[C@@H](CCO)C(=O)O; NMeA = CN[C@@H](C)C(=O)O; Dab = NCC[C@H](N)C(=O)O; Dap = NC[C@H](N)C(=O)O; ξC = NC(CS)C(=O)O; Sar = CNCC(=O)O

What was measured:
[1] = target: T1, Human PD-L1/PD-1 (Homo sapiens, UniProt Q9NZQ7); experiment: HTRF PD-1-Ig/PD-L1-His binding assay (human PD-L1)
T1 construct: made in house; host or cells: HEK293T
Summary of the method: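 HTRF read-out: Eu cryptate anti-Ig mAb 1 nM final, APC anti-His mAb 20 nM final, added over the binding reaction. Proteins were PD-1-Ig and PD-L1-His ectodomain fusions. Buffer was dPBS, 0.1% BSA, 0.05% Tween-20.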

[2] = target: T2, LK35.2-hPD-L1 cells / PE-labeled PD-1-Ig (Homo sapiens, UniProt Q9NZQ7); experiment: LK35.2-hPD-L1 cell binding high-content screening assay; format: cell-based
T2 construct: expressed in transfected cells; host or cells: LK35.2 mouse B cell line
Summary of the method: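 Using overnight-cultured LK35.2-hPD-L1 mouse B cells, compound was co-incubated with phycoerythrin-tagged human PD-1-Ig (final 1 nM) at 37 °C for one hour. Unbound label was removed by triple dPBS washing prior to high-content image acquisition and analysis.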

[3] = cluster symbol, read-out: HTRF IC50 cluster
[4] = cell binding assay, cell line not given, cluster symbol, read-out: CBA IC50 cluster
[5] = cluster symbol, cell line of CBA not given (LK35.2-hPD-L1 or 293T-hPD-L1), read-out: CBA IC50 cluster

T2 sequence (Q9NZQ7 19-290): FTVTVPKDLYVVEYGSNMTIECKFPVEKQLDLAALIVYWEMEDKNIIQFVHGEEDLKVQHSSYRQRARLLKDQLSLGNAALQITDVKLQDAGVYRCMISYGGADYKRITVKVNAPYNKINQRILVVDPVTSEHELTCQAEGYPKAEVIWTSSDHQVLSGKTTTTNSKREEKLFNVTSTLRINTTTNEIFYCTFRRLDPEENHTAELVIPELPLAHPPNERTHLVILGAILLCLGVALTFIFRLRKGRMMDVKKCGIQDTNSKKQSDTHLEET
T1 sequence (Q9NZQ7 with tags, fused parts or gaps): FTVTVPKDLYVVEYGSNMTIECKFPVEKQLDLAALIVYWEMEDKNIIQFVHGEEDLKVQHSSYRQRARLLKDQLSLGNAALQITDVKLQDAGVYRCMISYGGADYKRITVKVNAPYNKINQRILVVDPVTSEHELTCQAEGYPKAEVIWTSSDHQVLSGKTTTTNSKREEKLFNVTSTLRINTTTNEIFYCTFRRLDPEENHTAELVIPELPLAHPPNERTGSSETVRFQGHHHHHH

Row | Compound | pIC50 [1, 3] | pIC50 [2, 4] | other results
1 | CCCC[C@H]1C(=O)N(C)CC(=O)N[C@@H](CCC(=O)O)C(=O)N[C@@H](C(C)C)C(=O)N(C)[C@@H](Cc2ccccc2)C(=O)N[C@@H](Cc2ccc(O)cc2)C(=O)N(C)CC(=O)N[C@@H](Cc2c[nH]c3ccccc23)C(=O)N[C@@H](Cc2ccc(O)cc2)C(=O)N[C@@H](CC(C)C)C(=O)N[C@H](C(=O)NCC(N)=O)CSCC(=O)N[C@@H](Cc2ccccc2)C(=O)N(C)[C@@H](Cc2ccccc2)C(=O)N1C [Example 3502] (HELM PEPTIDE1{[O=C(C[*:3])[*:2]].F.[meF].[CCCC[C@@H](C(=O)[*:2])N(C)[*:1]].[Sar].E.V.[meF].Y.[Sar].W.Y.L.C.G.[am]}$PEPTIDE1,PEPTIDE1,1:R3-14:R3$$$V2.0) | 7.52 to 8.17 | 7.14 to 8.32 | 
2 | CCCC[C@H]1C(=O)N2C[C@H](O)C[C@@H]2C(=O)N[C@@H](CC(=O)O)C(=O)N[C@@H](C(C)C)C(=O)N(C)[C@@H](Cc2ccccc2)C(=O)N[C@@H](Cc2ccc(O)cc2)C(=O)N(C)[C@@H](CCC(=O)O)C(=O)N[C@@H](Cc2c[nH]c3ccccc23)C(=O)N[C@@H](Cc2ccc(O)cc2)C(=O)N[C@@H](CC(C)C)C(=O)N[C@H](C(=O)NCC(N)=O)CSCC(=O)N[C@@H](Cc2cc(F)c(F)c(F)c2)C(=O)N(C)[C@@H](Cc2ccccc2)C(=O)N1C [Example 3182] ({CH2CO}-[Phe(3,4,5-F3)][NMeF][NMeNle][d(cisHyp)]DV[NMeF]Y[NMeE]WYLCG-NH2; thioether N-13) | 8.17 to 9.41 |  | pIC50 [2, 5]: 8.33 to 9.80
3 | CCCC[C@H]1C(=O)N(C)[C@@H](CCCC)C(=O)N[C@@H](CO)C(=O)N[C@H](C(=O)NCC(N)=O)CSCC(=O)N[C@@H](Cc2ccc(O)cc2)C(=O)N(C)[C@@H](C)C(=O)N[C@@H](CO)C(=O)N2CCC[C@H]2C(=O)N[C@@H](CO)C(=O)N[C@@H](CO)C(=O)N2C[C@H](O)C[C@H]2C(=O)N[C@@H](Cc2c[nH]c3ccccc23)C(=O)N[C@@H](CO)C(=O)N[C@@H](Cc2c[nH]c3ccccc23)C(=O)N1C [Example 5135] ({CH2CO}-Y[NMeA]SPSS[Hyp]WSW[NMeNle][NMeNle]SCG-NH2; thioether N-14) | 7.52 to 8.17 | 7.14 to 8.32 | 
4 | CCCC[C@H]1C(=O)N(C)CC(=O)N[C@@H](CC(=O)O)C(=O)N[C@@H](CO)C(=O)N(C)[C@@H](Cc2ccccc2)C(=O)N[C@@H](Cc2ccc(O)cc2)C(=O)N(C)CC(=O)N[C@@H](Cc2c[nH]c3ccccc23)C(=O)N[C@@H](Cc2ccc(O)cc2)C(=O)N[C@@H](CC(C)C)C(=O)N[C@H](C(=O)NCC(N)=O)CSCC(=O)N[C@@H](Cc2ccccc2)C(=O)N(C)[C@@H](Cc2ccccc2)C(=O)N1C [Example 3156] (HELM PEPTIDE1{[O=C(C[*:3])[*:2]].F.[meF].[CCCC[C@@H](C(=O)[*:2])N(C)[*:1]].[Sar].D.S.[meF].Y.[Sar].W.Y.L.C.G.[am]}$PEPTIDE1,PEPTIDE1,1:R3-14:R3$$$V2.0) |  |  | pIC50 ([1]; read-out: HTRF IC50 value): 6.36; pIC50 ([2]; cell line of CBA not given (LK35.2-hPD-L1 or 293T-hPD-L1), read-out: CBA IC50 value): 5.73
5 | CCCC[C@H]1C(=O)N(C)CC(=O)N[C@@H](CC(=O)O)C(=O)N[C@@H](C(C)C)C(=O)N(C)[C@@H](Cc2ccccc2)C(=O)N[C@@H](Cc2ccc(O)cc2)C(=O)N(C)CC(=O)N[C@@H](Cc2c[nH]c3ccccc23)C(=O)N[C@@H](Cc2ccc(O)cc2)C(=O)N[C@@H](CC(C)C)C(=O)N[C@H](C(=O)NCC(N)=O)CSCC(=O)N[C@@H](Cc2cccc(C(F)(F)F)c2)C(=O)N(C)[C@@H](Cc2ccccc2)C(=O)N1C [Example 3106] ({CH2CO}-[Phe(3-CF3)][NMeF][NMeNle][Sar]DV[NMeF]Y[Sar]WYLCG-NH2; thioether N-13) | < 7.52 |  | pIC50 [2, 5]: 7.14 to 8.32
6 | CCCC[C@H]1C(=O)N(C)CC(=O)N[C@@H](CC(=O)O)C(=O)N[C@@H](C(C)C)C(=O)N(C)[C@@H](Cc2ccccc2)C(=O)N[C@@H](Cc2ccc(O)cc2)C(=O)N(C)CC(=O)N[C@@H](Cc2c[nH]c3ccccc23)C(=O)N[C@@H](Cc2ccc(O)cc2)C(=O)N[C@@H](CC(C)C)C(=O)N[C@H](C(=O)NCC(N)=O)CSCC(=O)N[C@@H](Cc2ccco2)C(=O)N(C)[C@@H](Cc2ccccc2)C(=O)N1C [Example 3101] ({CH2CO}-[Ala(2-furyl)][NMeF][NMeNle][Sar]DV[NMeF]Y[Sar]WYLCG-NH2; thioether N-13) | < 7.52 |  | pIC50 [2, 5]: < 7.13
7 | CCCC[C@H]1C(=O)N(C)[C@@H](CCCC)C(=O)N[C@@H](CC(C)C)C(=O)N[C@H](C(=O)NCC(N)=O)CSCC(=O)N[C@@H](Cc2ccc(O)cc2)C(=O)N(C)[C@@H](C)C(=O)N[C@@H](CC(N)=O)C(=O)N2CCC[C@H]2C(=O)N[C@@H](CN)C(=O)N[C@@H](CC(C)C)C(=O)N2C[C@@H](O)CC[C@H]2C(=O)N[C@@H](Cc2c[nH]c3ccccc23)C(=O)N[C@@H](CCN)C(=O)N[C@@H](Cc2c[nH]c3ccccc23)C(=O)N1C [Example 6042] ({CH2CO}-Y[NMeA]NP[Dap]L[X16]W[Dab]W[NMeNle][NMeNle]LCG-NH2; thioether N-14) | 8.17 to 9.41 | 7.14 to 8.32 | 

More lines, main results first:

Row | pIC50 [1, 3] | pIC50 [2, 4] | Compound | other results
8 | < 7.52 | < 7.13 | CCCC[C@H]1C(=O)N(C)[C@@H](CCCC)C(=O)N[C@@H](CC(=O)O)C(=O)N[C@H](C(=O)NCC(N)=O)CSCC(=O)N[C@@H](Cc2ccccc2)C(=O)N(C)[C@@H](C)C(=O)N[C@@H](CC(N)=O)C(=O)N2CCC[C@H]2C(=O)N[C@@H](Cc2cnc[nH]2)C(=O)N[C@@H](CC(C)C)C(=O)N(C)CC(=O)N[C@@H](Cc2c[nH]c3ccccc23)C(=O)N[C@@H](CO)C(=O)N[C@@H](Cc2c[nH]c3ccccc23)C(=O)N1C [Example 5030] ({CH2CO}-F[NMeA]NPHL[Sar]WSW[NMeNle][NMeNle]DCG-NH2; thioether N-14) | 
9 |  | < 7.13 | CCCC[C@H]1C(=O)N2CCC[C@@H]2C(=O)N[C@@H](CCCNC(=N)N)C(=O)N[C@H](C(=O)NCC(N)=O)CSCC(=O)N[C@@H](Cc2ccccc2)C(=O)N(C)[C@@H](C)C(=O)N[C@@H](CC(N)=O)C(=O)N2CCC[C@H]2C(=O)N[C@@H](Cc2cnc[nH]2)C(=O)N[C@@H](CC(C)C)C(=O)N(C)CC(=O)N[C@@H](Cc2c[nH]c3ccccc23)C(=O)N[C@@H](CO)C(=O)N[C@@H](Cc2c[nH]c3ccccc23)C(=O)N1C [Example 5009] (HELM PEPTIDE1{[O=C(C[*:3])[*:2]].F.[meA].N.P.H.L.[Sar].W.S.W.[CCCC[C@@H](C(=O)[*:2])N(C)[*:1]].[dP].R.C.G.[am]}$PEPTIDE1,PEPTIDE1,1:R3-15:R3$$$V2.0) | pIC50 ([1]; value given instead of cluster, read-out: HTRF IC50 value): 7.52
10 | 8.17 to 9.41 | 8.33 to 9.80 | CCCC[C@H]1C(=O)N(C)[C@@H](CCCC)C(=O)N[C@@H](CC(C)C)C(=O)N[C@H](C(=O)NCC(N)=O)CSCC(=O)N[C@@H](Cc2ccc(O)cc2)C(=O)N(C)[C@@H](C)C(=O)N[C@@H](CC(N)=O)C(=O)N2CCC[C@H]2C(=O)N[C@@H](CO)C(=O)N[C@@H](CC(C)C)C(=O)N2C[C@H](O)C[C@H]2C(=O)N[C@@H](Cc2c[nH]c3ccccc23)C(=O)N[C@@H](CCN)C(=O)N[C@@H](Cc2c[nH]c3ccccc23)C(=O)N1C [Example 5073] ({CH2CO}-Y[NMeA]NPSL[Hyp]W[Dab]W[NMeNle][NMeNle]LCG-NH2; thioether N-14) | 
11 | < 7.52 | < 7.13 | CCCC[C@H]1C(=O)N(C)[C@@H](CCCC)C(=O)N[C@@H](CCCNC(=N)N)C(=O)N[C@H](C(=O)NCC(N)=O)CSCC(=O)N[C@@H](Cc2ccccc2)C(=O)N(C)[C@@H](C)C(=O)N[C@@H]([C@@H](C)O)C(=O)N2CCC[C@H]2C(=O)N[C@@H](Cc2cnc[nH]2)C(=O)N[C@@H](CC(C)C)C(=O)N(C)CC(=O)N[C@@H](Cc2c[nH]c3ccccc23)C(=O)N[C@@H](CO)C(=O)N[C@@H](Cc2c[nH]c3ccccc23)C(=O)N1C [Example 5020] ({CH2CO}-F[NMeA]TPHL[Sar]WSW[NMeNle][NMeNle]RCG-NH2; thioether N-14) | 
12 | 7.52 to 8.17 | 7.14 to 8.32 | CCCC[C@H]1C(=O)N(C)[C@@H](CCCC)C(=O)N[C@@H](CCCNC(=N)N)C(=O)N[C@H](C(=O)NCC(N)=O)CSCC(=O)N[C@@H](Cc2ccccc2)C(=O)N(C)[C@@H](C)C(=O)N[C@@H](CC(N)=O)C(=O)N2CCC[C@H]2C(=O)N[C@@H](Cc2cnc[nH]2)C(=O)N[C@@H](CCCCN)C(=O)N(C)CC(=O)N[C@@H](Cc2c[nH]c3ccccc23)C(=O)N[C@@H](CO)C(=O)N[C@@H](Cc2c[nH]c3ccccc23)C(=O)N1C [Example 6004] ({CH2CO}-F[NMeA]NPHK[Sar]WSW[NMeNle][NMeNle]RCG-NH2; thioether N-14) | 
13 | 8.17 to 9.41 | 8.33 to 9.80 | CCCC[C@H]1C(=O)N(C)[C@@H](CCCC)C(=O)N[C@@H](CCCNC(=N)N)C(=O)NC(C(=O)NCC(N)=O)CSCC(=O)N[C@@H](Cc2ccc(O)cc2)C(=O)N(C)[C@@H](C)C(=O)N[C@@H](CC(N)=O)C(=O)N2CCC[C@H]2C(=O)N[C@@H](Cc2cnc[nH]2)C(=O)N[C@@H](CC(C)C)C(=O)N2CCC[C@H]2C(=O)N[C@@H](Cc2c[nH]c3ccccc23)C(=O)N[C@@H](CCO)C(=O)N[C@@H](Cc2c[nH]c3ccccc23)C(=O)N1C (some centres unmarked) [Example 9047] ({CH2CO}-Y[NMeA]NPHLPW[hSer]W[NMeNle][NMeNle]R[ξC]G-NH2; thioether N-14) | 
